Source: PMC7031696 (Cell chemical biology, 2019)
Read-outs that look alike come from different tables or passages of the source.

Columns and labels:
[1] = tested on: Plasmodium falciparum 3D7-A10 parasites; assay: Stage specificity assay (8-h exposure of synchronized stages, IC50^8h); assay type: cell-based; details: for IC50: Plasmodium falciparum
[2] = tested on: 3D7-MR4 trophozoite parasite-infected RBCs; assay: Metabolomic profiling (hydrophilic metabolite changes, UHPLC-MS); assay type: cell-based, Plasmodium falciparum
[3] = tested on: asynchronous 3D7-A10 parasite cultures; assay: Standard 72-h exposure asexual blood stage susceptibility assay (IC50^72h); assay type: cell-based, Plasmodium falciparum; details: Plasmodium falciparum, 3D7, 72 h, read-out: Overall (72hr assay) Mean IC50 (IC50^72h)

In the case of Cc1ccc(Oc2ncccc2C(=O)Nc2cccc3cccnc23)c(C)c1 [MMV020746], the “Ratio lowest IC50 8hr/IC50 72hr” value ([1]; 3D7-A10) is reported as 221.5, the IC50 ([1]; 3D7, read-out: Early rings IC50 (IC50^8h), 8-h exposure 0–8 hr, bound given in μM) is reported as greater than 25 µM and the IC50 ([1]; 3D7, read-out: Early trophozoites Mean IC50 (IC50^8h), 8-h exposure 16–24 hr, 3D7-A10, survival at 60 h) is reported as 12.6 µM. It also gave an IC50 ([1]; 3D7, read-out: Late rings IC50 (IC50^8h), 8-h exposure 8–16 hr, bound given in μM) greater than 25 µM, an IC50 ([1]; 3D7, read-out: Late trophozoites IC50 (IC50^8h), 8-h exposure 24–32 hr, bound given in μM) greater than 25 µM and an IC50 ([1]; 3D7, read-out: Schizonts IC50 (IC50^8h), 8-h exposure 32–40 hr, bound given in μM) greater than 25 µM. The “IC50^8h relative to IC50^72h value” ([1]; most susceptible stages) was greater than 28 fold, the “peptide levels (hemoglobin catabolism signature)” value ([2]; 10 × IC50^72h, 2.5 hr, trophozoites) was “decreased peptide levels” and the “Log2(fold changes) 3-phosphoglycerate” value ([2]; metabolite 3-phosphoglycerate, log2 fold change) was -0.8487. The “Log2(fold changes) 4-Pyridoxic acid” value ([2]; metabolite 4-Pyridoxic acid, log2 fold change) was -0.4495, the “Log2(fold changes) 4-aminobutyrate” value ([2]; metabolite 4-aminobutyrate, log2 fold change) was -0.1236 and the “Log2(fold changes) 4-phosphopantetheine” value ([2]; metabolite 4-phosphopantetheine, log2 fold change) was 0.0000. The “Log2(fold changes) 4-phosphopantothenate” value ([2]; metabolite 4-phosphopantothenate, log2 fold change) was -0.7722, the “Log2(fold changes) 5-aminopentanoic acid” value ([2]; metabolite 5-aminopentanoic acid, log2 fold change) was 0.0000 and the “Log2(fold changes) 5-methyl-THF” value ([2]; metabolite 5-methyl-THF, log2 fold change) was 0.0000. The “Log2(fold changes) 5-phosphoribosyl-1-pyrophosphate” value ([2]; metabolite 5-phosphoribosyl-1-pyrophosphate, log2 fold change) was 0.0000, the “Log2(fold changes) 6-phospho-D-gluconate” value ([2]; metabolite 6-phospho-D-gluconate, log2 fold change) was -0.3888 and the “Log2(fold change) HVDD” value ([2]; metabolite HVDD) was -4.2936. For the same molecule, the “Log2(fold change) Hydroxyisocaproic acid” value ([2]; metabolite Hydroxyisocaproic acid) was 0.0000, the “Log2(fold change) IDP” value ([2]; metabolite IDP) was 0.0000 and the “Log2(fold change) IMP” value ([2]; metabolite IMP) was -0.0604. The “Log2(fold change) Inositol” value ([2]; metabolite Inositol) was 0.0000, the “Log2(fold change) Isopentyl-PP” value ([2]; metabolite Isopentyl-PP) was -0.6932 and the “Log2(fold change) L-arginino-succinate” value ([2]; metabolite L-arginino-succinate) was -0.2156. The “Log2(fold change) LD” value ([2]; metabolite LD) was 0.1860, the “Log2(fold change) Myristoyl/tetradecanoyl-CoA” value ([2]; metabolite Myristoyl/tetradecanoyl-CoA) was 0.0000 and the “Log2(fold change) N-Acetyl-L-alanine” value ([2]; metabolite N-Acetyl-L-alanine) was 0.0990. The “Log2(fold change) N-acetyl-L-ornithine” value ([2]; metabolite N-acetyl-L-ornithine) was -1.5863, the “Log2(fold change) N-acetyl-glucosamine-1/6-phosphate” value ([2]; metabolite N-acetyl-glucosamine-1/6-phosphate) was 0.3354 and the “Log2(fold change) N-acetyl-glutamate” value ([2]; metabolite N-acetyl-glutamate) was -0.0291. For the same molecule, the “Log2(fold change) N-acetyl-glutamine” value ([2]; metabolite N-acetyl-glutamine) was 0.3326, the “Log2(fold change) N-carbamoyl-L-aspartate” value ([2]; metabolite N-carbamoyl-L-aspartate) was -0.0111 and the “Log2(fold change) NAD+” value ([2]; metabolite NAD+) was -0.2290. The “Log2(fold change) NADH” value ([2]; metabolite NADH) was 3.2383, the “Log2(fold change) NADP+” value ([2]; metabolite NADP+) was -0.2621 and the “Log2(fold change) NADPH” value ([2]; metabolite NADPH) was 2.9387. The “Log2(fold change) O-acetyl-L-serine” value ([2]; metabolite O-acetyl-L-serine) was -0.1299, the “Log2(fold change) Octoluse 8/1P” value ([2]; metabolite Octoluse 8/1P) was -0.0750 and the “Log2(fold change) Octoluse Bisphosphate” value ([2]; metabolite Octoluse Bisphosphate) was 0.1477. For the same molecule, the “Log2(fold change) PD” value ([2]; metabolite PD) was -2.6591, the “Log2(fold change) PE” value ([2]; metabolite PE) was -2.3902 and the “Log2(fold change) PEE” value ([2]; metabolite PEE) was -2.3026. For the same molecule, the “Log2(fold change) PEEK” value ([2]; metabolite PEEK) was -2.5604, the “Log2(fold change) PVNF” value ([2]; metabolite PVNF) was -4.8059 and the “Log2(fold change) Pyroglutamic acid” value ([2]; metabolite Pyroglutamic acid) was 0.1917. For the same molecule, the “Log2(fold change) Pyrophosphate” value ([2]; metabolite Pyrophosphate) was 0.0000, the “Log2(fold change) Ribose-5-phosphate” value ([2]; metabolite Ribose-5-phosphate) was -0.7820 and the “Log2(fold change) S-adenosyl-L-homocysteine” value ([2]; metabolite S-adenosyl-L-homocysteine) was -0.0800. The “Log2(fold change) S-adenosyl-L-methioninamine” value ([2]; metabolite S-adenosyl-L-methioninamine) was -2.2715, the “Log2(fold change) S-adenosyl-L-methionine” value ([2]; metabolite S-adenosyl-L-methionine) was 0.0000 and the “Log2(fold change) S-methyl-5'-thioadenosine” value ([2]; metabolite S-methyl-5'-thioadenosine) was 0.5248. The “Log2(fold change) SD” value ([2]; metabolite SD) was -1.2335, the “Log2(fold change) SDL” value ([2]; metabolite SDL) was 0.0000 and the “Log2(fold change) SID” value ([2]; metabolite SID) was -1.9821. The “Log2(fold change) Sedoheptulose bisphosphate” value ([2]; metabolite Sedoheptulose bisphosphate) was -0.9337, the “Log2(fold change) Thiamine pyrophosphate” value ([2]; metabolite Thiamine pyrophosphate) was -0.1414 and the “Log2(fold changes) UDP-D-glucose” value ([2]; metabolite UDP-D-glucose, log2 fold change) was 0.0347. The “Log2(fold changes) UDP-D-glucuronate” value ([2]; metabolite UDP-D-glucuronate, log2 fold change) was -0.1265, the “Log2(fold changes) UDP-N-acetyl-glucosamine” value ([2]; metabolite UDP-N-acetyl-glucosamine, log2 fold change) was -0.1353 and the “Log2(fold changes) UDP” value ([2]; metabolite UDP, log2 fold change) was -0.5234. The “Log2(fold changes) UMP” value ([2]; metabolite UMP, log2 fold change) was 0.1786, the “Log2(fold changes) UTP” value ([2]; metabolite UTP, log2 fold change) was 0.0000 and the “Log2(fold change) hydroxyphenylpyruvate” value ([2]; metabolite hydroxyphenylpyruvate) was 0.0000. The “Log2(fold change) hydroxyproline/Aminolevulinate” value ([2]; metabolite hydroxyproline/Aminolevulinate) was -0.2593, the “Log2(fold change) hypoxanthine” value ([2]; metabolite hypoxanthine) was 0.0518 and the “Log2(fold change) indole” value ([2]; metabolite indole) was 0.0000. For the same molecule, the “Log2(fold change) inosine” value ([2]; metabolite inosine) was -0.1327, the “Log2(fold change) isoleucine” value ([2]; metabolite isoleucine) was 0.0000 and the “Log2(fold change) lactate” value ([2]; metabolite lactate) was -0.6990. The “Log2(fold change) leucine” value ([2]; metabolite leucine) was 0.0000, the “Log2(fold change) lysine” value ([2]; metabolite lysine) was -2.2531 and the “Log2(fold change) malate” value ([2]; metabolite malate) was -0.6987. For the same molecule, the “Log2(fold change) maleic acid” value ([2]; metabolite maleic acid) was -0.7709, the “Log2(fold change) methionine” value ([2]; metabolite methionine) was -0.0286 and the “Log2(fold change) myo-inositol” value ([2]; metabolite myo-inositol) was -0.7655. For the same molecule, the “Log2(fold change) nicotinamide mononucleotide” value ([2]; metabolite nicotinamide mononucleotide) was -0.5765, the “Log2(fold change) nicotinate” value ([2]; metabolite nicotinate) was -0.1328 and the “Log2(fold change) ornithine” value ([2]; metabolite ornithine) was -0.3857. The “Log2(fold change) orotate” value ([2]; metabolite orotate) was -0.1387, the “Log2(fold change) orotidine-5'-phosphate” value ([2]; metabolite orotidine-5'-phosphate) was 0.0782 and the “Log2(fold change) oxaloacetate” value ([2]; metabolite oxaloacetate) was -0.6442. The “Log2(fold change) p-aminobenzoate” value ([2]; metabolite p-aminobenzoate) was 0.0000, the “Log2(fold change) p-hydroxybenzoate” value ([2]; metabolite p-hydroxybenzoate) was 0.0000 and the “Log2(fold change) pantothenate” value ([2]; metabolite pantothenate) was -0.1112. The “Log2(fold change) phenylalanine” value ([2]; metabolite phenylalanine) was -0.4829, the “Log2(fold change) phenylpyruvate” value ([2]; metabolite phenylpyruvate) was 0.0000 and the “Log2(fold change) phosphoenolpyruvate” value ([2]; metabolite phosphoenolpyruvate) was -0.5858. For the same molecule, the “Log2(fold change) prephenate” value ([2]; metabolite prephenate) was -0.3824, the “Log2(fold change) proline” value ([2]; metabolite proline) was -0.5702 and the “Log2(fold change) pyridoxine” value ([2]; metabolite pyridoxine) was -0.1642. For the same molecule, the “Log2(fold change) pyruvate” value ([2]; metabolite pyruvate) was -1.5001, the “Log2(fold change) riboflavin” value ([2]; metabolite riboflavin) was 0.4413 and the “Log2(fold change) ribose” value ([2]; metabolite ribose) was -0.0174. For the same molecule, the “Log2(fold change) ribose-phosphate” value ([2]; metabolite ribose-phosphate) was -1.1321, the “Log2(fold change) ribulose-5-phosphate” value ([2]; metabolite ribulose-5-phosphate) was -0.7375 and the “Log2(fold change) serine” value ([2]; metabolite serine) was -0.1379. The “Log2(fold change) sn-glycerol-3-phosphate” value ([2]; metabolite sn-glycerol-3-phosphate) was 0.0529, the “Log2(fold change) succinate/Methylmalonic acid” value ([2]; metabolite succinate/Methylmalonic acid) was -0.5504 and the “Log2(fold change) succinyl-CoA/methylmalonyl-CoA” value ([2]; metabolite succinyl-CoA/methylmalonyl-CoA) was 0.0000. For the same molecule, the “Log2(fold change) taurine” value ([2]; metabolite taurine) was 0.3831, the “Log2(fold change) thiamine” value ([2]; metabolite thiamine) was -0.5873 and the “Log2(fold change) threonine/homoserine” value ([2]; metabolite threonine/homoserine) was -0.5084. For the same molecule, the “Log2(fold change) thymidine” value ([2]; metabolite thymidine) was 0.0000, the “Log2(fold changes) thymine” value ([2]; metabolite thymine, log2 fold change) was 0.0000 and the “Log2(fold changes) trehalose-6-Phosphate” value ([2]; metabolite trehalose-6-Phosphate, log2 fold change) was 0.0000. For the same molecule, the “Log2(fold changes) tryptophan” value ([2]; metabolite tryptophan, log2 fold change) was -0.7516, the “Log2(fold changes) tyrosine” value ([2]; metabolite tyrosine, log2 fold change) was -0.2515 and the “Log2(fold changes) uridine” value ([2]; metabolite uridine, log2 fold change) was 0.0000. It also gave an IC50 [3] of 0.0568 µM.
